Numbers after ± are expanded uncertainties.
Assay: molar heat capacity at saturation pressure
Conditions: Crystal 2, Small (less than 1 g) adiabatic calorimetry

O[C@@H]1[C@@H](O)[C@@H]2OC[C@@H](O2)[C@H]1O [1,6-anhydro-β-D-glucopyranose]
Conditions | molar heat capacity [J/K/mol]
5.26 K | 0.1543 ± 0.018
5.62 K | 0.1754 ± 0.018
5.93 K | 0.2008 ± 0.018
6.31 K | 0.2396 ± 0.019
6.75 K | 0.2955 ± 0.019
7.19 K | 0.3641 ± 0.02
7.65 K | 0.4465 ± 0.021
8.1 K | 0.5445 ± 0.023
8.57 K | 0.6608 ± 0.025
9.04 K | 0.7922 ± 0.027
9.51 K | 0.9407 ± 0.029
9.99 K | 1.112 ± 0.031
10.53 K | 1.33 ± 0.035
11.15 K | 1.603 ± 0.038
11.77 K | 1.9 ± 0.042
12.4 K | 2.236 ± 0.047
13.05 K | 2.607 ± 0.051
13.7 K | 3.009 ± 0.056
14.35 K | 3.44 ± 0.06
15.01 K | 3.908 ± 0.064
15.78 K | 4.473 ± 0.069
16.65 K | 5.151 ± 0.074
17.53 K | 5.868 ± 0.079
18.42 K | 6.609 ± 0.082
19.31 K | 7.372 ± 0.086
20.21 K | 8.174 ± 0.091
21.39 K | 9.247 ± 0.098
22.86 K | 10.63 ± 0.11
24.35 K | 12.04 ± 0.11
25.84 K | 13.46 ± 0.12
27.08 K | 14.64 ± 0.12
28.51 K | 16.01 ± 0.13
30.04 K | 17.43 ± 0.15
31.72 K | 19.01 ± 0.16
33.56 K | 20.71 ± 0.17
35.41 K | 22.39 ± 0.18
37.27 K | 24 ± 0.19
39.13 K | 25.62 ± 0.19
41.1 K | 27.29 ± 0.2
43.17 K | 29.02 ± 0.21
45.24 K | 30.72 ± 0.22
47.32 K | 32.39 ± 0.23
49.4 K | 34.01 ± 0.24
51.49 K | 35.61 ± 0.24
53.58 K | 37.22 ± 0.25
55.67 K | 38.75 ± 0.26
57.78 K | 40.27 ± 0.27
59.89 K | 41.77 ± 0.28
62 K | 43.24 ± 0.28
64.11 K | 44.7 ± 0.29
66.22 K | 46.15 ± 0.3
68.34 K | 47.58 ± 0.31
70.46 K | 49 ± 0.32
72.68 K | 50.47 ± 0.32
75.01 K | 51.98 ± 0.33
77.35 K | 53.49 ± 0.33
78.72 K | 54.4 ± 0.34
79.68 K | 54.97 ± 0.34
80.68 K | 55.63 ± 0.35
80.76 K | 55.68 ± 0.35
82.03 K | 56.47 ± 0.36
82.6 K | 56.8 ± 0.36
82.68 K | 56.86 ± 0.36
84.52 K | 57.99 ± 0.36
84.6 K | 58.06 ± 0.36
86.44 K | 59.2 ± 0.37
86.52 K | 59.23 ± 0.37
88.37 K | 60.4 ± 0.37
88.45 K | 60.45 ± 0.37
90.29 K | 61.6 ± 0.4
90.37 K | 61.65 ± 0.4
92.23 K | 62.79 ± 0.41
92.3 K | 62.82 ± 0.41
94.16 K | 63.97 ± 0.41
94.23 K | 64.01 ± 0.41
96.1 K | 65.16 ± 0.42
96.17 K | 65.21 ± 0.42
98.04 K | 66.35 ± 0.43
98.11 K | 66.41 ± 0.43
99.98 K | 67.6 ± 0.43
100.05 K | 67.69 ± 0.43
101.92 K | 69.02 ± 0.44
101.99 K | 69.12 ± 0.44
103.87 K | 70.46 ± 0.44
103.93 K | 70.5 ± 0.44
105.82 K | 71.75 ± 0.45
105.88 K | 71.76 ± 0.45
107.77 K | 72.94 ± 0.45
107.83 K | 72.96 ± 0.45
109.73 K | 74.07 ± 0.46
109.79 K | 74.13 ± 0.46
111.69 K | 75.2 ± 0.46
111.75 K | 75.25 ± 0.46
113.65 K | 76.35 ± 0.47
113.71 K | 76.37 ± 0.47
115.61 K | 77.45 ± 0.48
115.67 K | 77.49 ± 0.48
117.58 K | 78.55 ± 0.48
117.64 K | 78.6 ± 0.48
119.55 K | 79.66 ± 0.49
119.61 K | 79.69 ± 0.49
121.58 K | 80.81 ± 0.49
123.55 K | 81.91 ± 0.5
125.53 K | 83.02 ± 0.5
127.51 K | 84.1 ± 0.51
129.49 K | 85.22 ± 0.51
131.47 K | 86.32 ± 0.52
133.45 K | 87.41 ± 0.52
135.44 K | 88.53 ± 0.53
137.43 K | 89.66 ± 0.53
139.41 K | 90.74 ± 0.54
141.41 K | 91.84 ± 0.55
143.4 K | 92.95 ± 0.55
145.4 K | 94.05 ± 0.56
147.39 K | 95.15 ± 0.56
149.39 K | 96.28 ± 0.57
151.39 K | 97.39 ± 0.57
153.39 K | 98.5 ± 0.57
155.4 K | 99.63 ± 0.58
157.4 K | 100.7 ± 0.6
159.41 K | 101.8 ± 0.6
161.42 K | 103 ± 0.6
163.43 K | 104.1 ± 0.6
165.44 K | 105.2 ± 0.6
167.46 K | 106.4 ± 0.6
169.47 K | 107.5 ± 0.6
171.49 K | 108.6 ± 0.6
173.51 K | 109.8 ± 0.6
175.53 K | 110.9 ± 0.6
177.54 K | 112 ± 0.6
179.56 K | 113.2 ± 0.7
181.59 K | 114.4 ± 0.7
183.61 K | 115.5 ± 0.7
185.63 K | 116.7 ± 0.7
187.66 K | 117.8 ± 0.7
189.68 K | 119 ± 0.7
191.71 K | 120.2 ± 0.7
193.74 K | 121.4 ± 0.7

Reference: the NIST ThermoML archive (doi:10.1016/j.jct.2015.01.005)
